Laboratory results reported in ChEMBL document CHEMBL1201862, “PubChem BioAssay data set” (2004).
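48-hour exposure; five concentrations; linearly interpolated endpoints. GI50: concentration for 50% inhibition of growth.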 The source made the active and inactive calls. Cut-off read from the data, not from the text of the source: active = GI50 up to about 1.1 µM and inactive = higher.

What was measured:
Assay in all cases: DTP human tumour cell line panel, 48 h
A498 = test system: A498
A549 = test system: A549
CAKI-1 = test system: CAKI-1
DMS-114 = test system: DMS-114
EKVX = test system: EKVX
HCT-116 = test system: HCT-116
KM-20L2 = test system: KM-20L2
LXFL 529 = test system: LXFL 529
M19-MEL = test system: M19-MEL
MOLT-4 = test system: MOLT-4
NCI-H226 = test system: NCI-H226
NCI-H23 = test system: NCI-H23
NCI-H460 = test system: NCI-H460
NCI-H522 = test system: NCI-H522
OVCAR-4 = test system: OVCAR-4
OVCAR-5 = test system: OVCAR-5
OVCAR-8 = test system: OVCAR-8
RPMI-8226 = test system: RPMI-8226
SF-268 = test system: SF-268
SF-295 = test system: SF-295
SF-539 = test system: SF-539
SK-MEL-28 = test system: SK-MEL-28
SNB-19 = test system: SNB-19
SNB-78 = test system: SNB-78
SR = test system: SR
SW-620 = test system: SW-620
U-251 = test system: U-251
UACC-257 = test system: UACC-257
UACC-62 = test system: UACC-62
UO-31 = test system: UO-31
786-0 = test system: 786-0
ACHN = test system: ACHN
BT-549 = test system: BT-549
CCRF-CEM = test system: CCRF-CEM
COLO 205 = test system: COLO 205
DU-145 = test system: DU-145
HCC 2998 = test system: HCC 2998
HCT-15 = test system: HCT-15
HL-60 = test system: HL-60
HOP-62 = test system: HOP-62
HOP-92 = test system: HOP-92
HT-29 = test system: HT-29
Hs-578T = test system: Hs-578T
IGROV-1 = test system: IGROV-1
K562 = test system: K562
KM12 = test system: KM12
LOX IMVI = test system: LOX IMVI
M14 = test system: M14
MCF7 = test system: MCF7
MDA-MB-231 = test system: MDA-MB-231
MDA-MB-435 = test system: MDA-MB-435
MDA-N = test system: MDA-N
Malme-3M = test system: Malme-3M
NCI/ADR-RES = test system: NCI/ADR-RES
OVCAR-3 = test system: OVCAR-3
PC-3 = test system: PC-3
RXF 393 = test system: RXF 393
SK-MEL-2 = test system: SK-MEL-2
SK-MEL-5 = test system: SK-MEL-5
SK-OV-3 = test system: SK-OV-3
SN12C = test system: SN12C
SNB-75 = test system: SNB-75
T47D = test system: T47D
TK-10 = test system: TK-10
DLD-1 = test system: DLD-1
DMS-273 = test system: DMS-273

Measured: GI50

CCN(CC)CCNc1ccc(CO)c2sc3ccccc3c(=O)c12 [HYCANTHONE]
inactive: A498 8.22 µM | A549 6.85 µM | CAKI-1 5.92 µM | DMS-114 11.5 µM | EKVX 13.7 µM | HCT-116 4.8 µM | KM-20L2 5.37 µM | LXFL 529 12.7 µM | M19-MEL 13 µM | MOLT-4 2.79 µM | NCI-H226 13.9 µM | NCI-H23 > 10 µM | NCI-H460 4.04 µM | NCI-H522 4.04 µM | OVCAR-4 5.37 µM | OVCAR-5 12.5 µM | OVCAR-8 6.37 µM | RPMI-8226 10.8 µM | SF-268 8.89 µM | SF-295 7.14 µM | SF-539 11.2 µM | SK-MEL-28 16.8 µM | SNB-19 9.51 µM | SNB-78 12.7 µM | SR 3.18 µM | SW-620 5.48 µM | U-251 10.5 µM | UACC-257 15.8 µM | UACC-62 19.5 µM | UO-31 6.58 µM

CC1=C(O)C(=O)c2ccccc2C1=O
27 µM: HCT-15
inactive: 786-0 71.9 µM | A498 > 100 µM | A549 > 100 µM | ACHN 58.7 µM | BT-549 18.6 µM | CAKI-1 > 100 µM | CCRF-CEM > 100 µM | COLO 205 > 100 µM | DU-145 64.9 µM | EKVX > 100 µM | HCC 2998 > 100 µM | HCT-116 > 100 µM | HL-60 6.82 µM | HOP-62 > 100 µM | HOP-92 > 100 µM | HT-29 56.1 µM | Hs-578T 78.2 µM | IGROV-1 80.4 µM | K562 78.5 µM | KM12 23 µM | LOX IMVI 70.6 µM | M14 16.9 µM | MCF7 67.6 µM | MDA-MB-231 > 100 µM | MDA-MB-435 52.6 µM | MDA-N 46.7 µM | MOLT-4 > 100 µM | Malme-3M 9.02 µM | NCI-H226 > 100 µM | NCI-H23 12.3 µM | NCI-H460 43.6 µM | NCI-H522 47.9 µM | NCI/ADR-RES > 100 µM | OVCAR-3 43.4 µM | OVCAR-4 > 100 µM | OVCAR-5 > 100 µM | OVCAR-8 > 100 µM | PC-3 82.6 µM | RPMI-8226 18.6 µM | RXF 393 34.8 µM | SF-268 94.6 µM | SF-295 49.4 µM | SF-539 > 100 µM | SK-MEL-28 > 100 µM | SK-MEL-2 > 100 µM | SK-MEL-5 4.45 µM | SK-OV-3 > 100 µM | SN12C > 100 µM | SNB-19 > 100 µM | SNB-75 44.3 µM | SR 88.5 µM | SW-620 84.3 µM | T47D > 100 µM | TK-10 24.3 µM | U-251 34 µM | UACC-257 47.3 µM | UACC-62 39.3 µM | UO-31 21.5 µM

COC(=O)C1C(O)C(C)C(O)C(C)/C=C\C=C(C)C(=O)Nc2c(C)c(OC(C)=O)c3c(c2O)C(=O)C(C)=C2OCOC(=C23)C(C)=CC(C)(O)C(O)C(C)C1O (configuration not stated)
inactive: A498 63.1 µM | CAKI-1 33.7 µM | COLO 205 17.4 µM | DLD-1 18.3 µM | DMS-114 19.7 µM | DMS-273 52.6 µM | HCT-116 26.4 µM | HL-60 18.7 µM | HOP-62 > 75 µM | HOP-92 60.1 µM | HT-29 21.7 µM | IGROV-1 > 75 µM | KM-20L2 34 µM | MCF7 20.1 µM | Malme-3M 45.4 µM | NCI-H226 61.7 µM | NCI/ADR-RES 56.9 µM | OVCAR-3 42.4 µM | OVCAR-5 > 75 µM | OVCAR-8 28.6 µM | SF-268 43.9 µM | SF-295 62.5 µM | SF-539 > 60.5 µM | SK-MEL-28 26.6 µM | SK-MEL-2 18.1 µM | SK-MEL-5 40 µM | SK-OV-3 > 75 µM | SNB-19 > 75 µM | SNB-78 41.4 µM | SW-620 25 µM | U-251 60.4 µM | UACC-257 32.1 µM | UO-31 72.6 µM
